The results in this text go back to patent US20130040893A1, “TREATMENT OF PROLIFERATIVE DISORDERS” (TETRALOGIC PHARMACEUTICALS CORPORATION, priority 2005, published 2013).

The term IC50 denotes the concentration needed to halve the response being measured.

Assay [1] relates to SK-OV-3 cells. The assay is described as follows: MTT cell growth assay in SK-OV-3 ovarian cancer cells. The format is cell-based. As to conditions: Homo sapiens. How it is done: The MTT assay is an example of an assay that has been used for measuring cell growth as previously described (Hansen, M. B., Nielsen, S. E., and Berg, K. (1989) J. Immunol. Methods 119, 203-210) and incorporated herein by reference in its entirety. Briefly, SK-OV-3 cells were seeded in 96-well plates in McCoy's medium containing 10% fetal bovine serum […] (10,000 per well) and incubated overnight at 37° C.
μM) and the plates were incubated at 37° C. for an additional 72 hrs. This incubation time was optimal for measuring inhibitory effects of different analogs. 50 microliters of 5 mg/mL MTT reagent to each well was added and the plates were incubated at 37° C. for 3 hours. At the end of incubation period, 50 microliters of DMSO was added to each well to dissolve cells and the optical density (OD) of the wells was measured with a microplate reader (Victor^2 1420, Wallac, Finland) at 535 nm. Cell survival (CS) was calculated by the following equation:
CS=(OD treated well/mean OD control wells)×100%.
The EC50 (Table 1), defined as the drug concentration that results in 50% CS, was derived by calculating the point where the dose-response curve crosses the 50% CS point using GraphPad Prism.
A general note: Tetrazolium dyes change colour on reduction, which living cells bring about.

The subject of assay [2] is OVCAR-3 cell line. The assay is described as follows: Synergistic toxicity with SN-38, MTT matrix. The format is cell-based. The text has this: MTT assays were setup by testing a matrix of concentrations of both drugs.
The target in assay [3] is BIR-3 domain of XIAP (Homo sapiens, UniProt P98170). The assay is described as follows: Fluorescence polarization binding assay, XIAP BIR-3 domain. A general note: Polarisation of emitted light reports the rotation of a fluorescent probe.
Chain of BIR-3 domain of XIAP (P98170 241-356 limits assumed): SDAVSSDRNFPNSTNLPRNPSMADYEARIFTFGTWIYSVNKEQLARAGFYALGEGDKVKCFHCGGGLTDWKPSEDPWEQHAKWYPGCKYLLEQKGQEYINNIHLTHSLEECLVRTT
Description: (§6) IC50 values (Table I) were determined from the plot using nonlinear least-squares analysis using GraphPad Prism.
(§7) We have utilized the specificity of this IAP binding motif in a fluorescence polarization assay to measure the binding affinities for cIAP-1 Antagonists. The fluorescence polarization assay consists of FP peptide {Sri: What is “FP Peptide”?}, and the recombinant BIR3 domain of the XIAP protein. The FP peptide and mimics of cIAP-1 N-terminus compete for binding to the BIR3 protein. […] If a peptide, peptidomimetic, or other small molecule being tested is a competitor, then it succeeds in displacing the FP peptide, resulting in a low mP value. Molecules that compete with the FP peptide can be titrated and IC50 values determined (GraphPad Prism nonlinear regression curve-fitting program) by plotting mp value as the direct measure of fraction bound vs. the log of the compound concentration.
Assay [4] concerns the target BIR-3 domain of cIAP-1 (Homo sapiens, UniProt Q13490). The assay is described as follows: Fluorescence polarization binding assay, cIAP-1 BIR-3 domain.
Description: as §6, §7
Assay [5] deals with BIR-3 domain of cIAP-1. The assay is described as above. Conditions: cIAP-1 relative to XIAP.
Description: as §6, §7
In assay [6] the target is T1, cIAP-1 (Homo sapiens, UniProt Q13490).
T1 construct: endogenous in cells; host or cells: SKOV3 (SK-OV-3) cells
T1 sequence (Q13490 whole entry): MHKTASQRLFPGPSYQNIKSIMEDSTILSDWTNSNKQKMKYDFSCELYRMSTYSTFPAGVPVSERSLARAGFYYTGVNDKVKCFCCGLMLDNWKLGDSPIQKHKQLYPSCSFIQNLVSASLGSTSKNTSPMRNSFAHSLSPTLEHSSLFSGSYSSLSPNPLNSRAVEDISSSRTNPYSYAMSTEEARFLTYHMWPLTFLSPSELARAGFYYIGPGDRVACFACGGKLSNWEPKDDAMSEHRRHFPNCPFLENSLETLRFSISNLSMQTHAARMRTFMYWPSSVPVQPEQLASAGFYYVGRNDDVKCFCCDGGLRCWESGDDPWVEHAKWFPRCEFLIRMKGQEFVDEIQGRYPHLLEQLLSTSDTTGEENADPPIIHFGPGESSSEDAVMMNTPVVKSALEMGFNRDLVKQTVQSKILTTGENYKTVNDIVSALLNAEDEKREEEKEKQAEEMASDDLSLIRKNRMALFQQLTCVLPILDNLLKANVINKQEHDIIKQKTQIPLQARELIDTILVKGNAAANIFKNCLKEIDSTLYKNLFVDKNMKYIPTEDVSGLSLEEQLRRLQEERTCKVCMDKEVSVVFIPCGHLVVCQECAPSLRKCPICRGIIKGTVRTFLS
Description: Western blot of cIAP-1 degradation in SKOV3 cells. In kind it is cell-based. As to conditions: SK-OV-3 cells, 20 hrs, absence of bortezomib. How it is done:
(§1) SKOV3 cells were passed into six 60×15 mm tissue culture dishes 2 days before experiment. Cells appeared to be ˜80% confluent at time of harvest. […] A 10-fold dilution of this solution into medium A gave the 100 nM working solution.
(§2) Western blot analysis was carried out using standard technique. Briefly, cells were lysed using the MPER mammalian cell lysis solution (Bio-Rad #78503) to which 10 μl/mL of a 100× solution of HALT protease inhibitor cocktail (Bio-Rad #78410) has been added. To each dish of cells, 200 μl of the lysis solution plus protease inhibitors is added. The cells in each dish are scraped using a cell scraper and allowed to incubate with the reagent for 10 minutes. The lysates were transferred to pre-chilled microfuge tubes and spun for 20 minutes at 15,000×g at 4° C. The supernatant was transferred to a clean, chilled microfuge tube.
(§3) Next, the total protein content of the lysates was determined using the BCA Protein Assay according to the manufacturer's protocol and using interpolation from a standard curve generated with BSA.
(§4) The samples were normalized for protein content during preparation for gel electrophoresis. The samples were prepared using 2× Laemmli Sample buffer to which 200 mM DTT was added. […]

Assay [7] has as its target T2, XIAP (Homo sapiens, UniProt P98170).
T2 construct: SKOV3 cells were passed into six 60×15 mm tissue culture dishes; endogenous in cells; host or cells: SKOV3 (SK-OV-3) cells
Description: Western blot of XIAP degradation in SKOV3 cells. In kind it is cell-based. As to conditions: SK-OV-3 cells, 20 hrs, absence of bortezomib. How it is done:
as §1, §2, §3, §4
On the technique in general: In western blotting, separated proteins are transferred to a membrane and probed.

Assay [8] concerns SK-OV-3^R cells. Description: TRAIL sensitivity MTT assay in IAP Antagonist-resistant SK-OV-3 cells. In kind it is cell-based. On the procedure: (§5) Another unexpected observation we made was with respect to TRAIL sensitivity. IAP Antagonist-resistant SK-OV-3 cells (SK-OV-3^R) were generated by exposing the parental SK-OV-3 cells (SK-OV-3^S) to an IAP antagonist compound at a concentration that kills 95% of cells. Three days later, viable cells were transferred to a fresh flask and grown to confluency. Two weeks later, the cells were tested for IAP Antagonist sensitivity in an MTT assay as described above and as expected, found these cells to be resistant to IAP Antagonist cytotoxicity.

Assay [9] has as its system SK-OV-3^S cells. The assay is described as follows: TRAIL sensitivity MTT assay in parental SK-OV-3 cells. In kind it is cell-based. On the procedure: as §5
[10] abbreviates: SK-OV-3 cells, 72 hrs, read-out: MTT EC50.

Read-outs that look alike come from different tables or passages of the source.

Chain of BIR-3 domain of cIAP-1 (Homo sapiens, UniProt Q13490) (Q13490 266-352 limits assumed): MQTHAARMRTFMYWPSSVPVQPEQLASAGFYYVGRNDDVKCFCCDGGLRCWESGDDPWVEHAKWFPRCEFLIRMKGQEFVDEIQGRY
T2 sequence (P98170 whole entry): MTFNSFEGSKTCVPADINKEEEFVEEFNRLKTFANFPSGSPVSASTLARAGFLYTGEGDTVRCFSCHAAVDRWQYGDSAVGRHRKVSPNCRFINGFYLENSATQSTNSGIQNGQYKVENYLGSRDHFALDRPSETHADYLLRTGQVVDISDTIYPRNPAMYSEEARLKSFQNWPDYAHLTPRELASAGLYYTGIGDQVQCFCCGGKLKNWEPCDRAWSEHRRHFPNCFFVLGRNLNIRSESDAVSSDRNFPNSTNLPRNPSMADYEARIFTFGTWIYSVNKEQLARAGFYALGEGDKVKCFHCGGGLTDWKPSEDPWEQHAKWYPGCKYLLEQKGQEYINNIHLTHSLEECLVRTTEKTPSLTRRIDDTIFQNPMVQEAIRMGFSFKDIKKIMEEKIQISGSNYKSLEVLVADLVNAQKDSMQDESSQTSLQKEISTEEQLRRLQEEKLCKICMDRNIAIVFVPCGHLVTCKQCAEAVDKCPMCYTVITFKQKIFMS

Regarding `CC(C)[C@H](NC(=O)CN)C(=O)N1C[C@@H](Oc2ccccc2)C[C@H]1Cc1coc2ccccc12` [Compound I], the EC50 in [1] (SK-OV-3, Table 10, read-out: MTT (SKOV-3)) was below 10 nM; in assay [1] (setting [10]) it was below 10 nM. Further, the “synergistic toxicity with SN-38 (synergistic volume)” value in [2] is reported as “comparable”. Besides, the IC50 was above 100 nM in [3]; above 100 nM in assay [3] (read-out: IC50 (XIAP), Table 10); below 10 nM in assay [4]; below 10 nM in assay [4] (read-out: IC50 (cIAP-1), Table 10). In [5], the “binding to cIAP-1 more tightly than to XIAP” value came out at 117 fold.
In the case of `CN[C@@H](C)C(=O)N[C@H](C(=O)N1CCC[C@H]1Cc1c(-c2ccc(F)cc2)n(CCOCCOCCOC)c2cc(F)ccc12)C(C)(C)C` [Q], the EC50 in assay [1] (setting [10]) is below 10 nM. The “cIAP-1 protein by western blot” value in assay [6] is “complete disappearance”. In assay [7], the “XIAP protein by western blot” value is given as “complete disappearance”. The IC50 in assay [3] and in assay [4] was 10 to 100 nM each time.

B1: TRAIL: tumor necrosis factor-related apoptosis-inducing ligand, member of the TNF superfamily (protein, UniProt P50591 1-281, looked up)
Tumor necrosis factor ligand …: MAMMEVQGGPSLGQTCVLIVIFTVLLQSLCVAVTYVYFTNELKQMQDKYSKSGIACFLKEDDSYWDPNDEESMNSPCWQVKWQLRQLVRKMILRTSEETISTVQEKQQNISPLVRERGPQRVAAHITGTRGRSNTLSSPNSKNEKALGRKINSWESSRSGHSFLSNLHLRNGELVIHEKGFYYIYSQTYFRFQEEIKENTKNDKQMVQYIYKYTSYPDPILLMKSARNSCWSKDAEYGLYSIYQGGIFELKENDRIFVSVTNEHLIDMDHEASFFGAFLVG
As for B1, the TRAIL sensitivity result in assay [8] is recorded as “sensitive to TRAIL”; in [9] it was “resistant to TRAIL”.
